# According to publication PMC5764437, “Discovery of novel, orally bioavailable, antileishmanial compounds using phenotypic screening” (PLoS Neglected Tropical Diseases, 2017):
# Structures can show the parent of a compound that is named as a salt. Where two headings read alike, the source gives them in different places. Starred links: 1 amine or outer side, 2 acyl side, 3 side chain; linkers in the order of their positions; H or OH if unused. Positions of bridges follow the written chain, without caps; N, C: chain ends. Non-standard residues stand in square brackets, D forms with d. Residues, ends and D or L forms follow the SMILES beside them. Chains are numbered I, II in the order given. Actinocin(9to1) = Cc1c2oc3c(C)ccc(C(=O)[*:1])c3nc-2c(C(=O)[*:2])c(N)c1=O; NMeV = CN[C@H](C(=O)O)C(C)C; Sar = CNCC(=O)O
# Legend:
# [1] = system: L. mexicana promastigotes; experiment: High-throughput assay for growth inhibition of promastigotes (SYBR Green I); format: cell-based
# Procedure: Into each well of 384-well microplates (black polystyrene, clear bottom, tissue culture treated, Corning), 15 μl of medium (DME-L [41] plus 100 μM xanthine and 10% heat inactivated fetal calf serum) was dispensed with a liquid dispenser (Matrix Wellmate, Thermo Scientific). Stock compounds, dissolved in DMSO at a fixed concentration of 10 mM, were pin-transferred (V&P Scientific) into the microplate to the desired final concentration using an automated robot arm. To each well of the plates, 15 μl of L. mexicana promastigotes (strain MNYZ/BZ/62/M379, 2 x 10^6/mL) was added with the Wellmate dispenser. Microplates were incubated (Liconic) at 28°C and 5% CO2 for 72 h. After incubation, 10 μl of lysis/dye solution (5X SYBR Green I, 5% Triton X-100 in PBS) was added to each well. Plates were shaken at 1000 rpm, incubated at room temperature for 20 min, and fluorescence signal measured (excitation 485 nm, emission 535 nm) with the Envision plate reader (PerkinElmer).
# The initial promastigote screen was performed with the St. Jude Chemical Biology & Therapeutics (CBT) library consisting of 596,414 compounds. Library compounds were filtered by several computational methods to remove those likely to have undesirable physical or biological properties and biased towards oral bioavailability. In this way we focused the collection on compounds most likely to be effective in cellular models of activity, without structural features that would pose a challenge to drug development. In the primary screen, compounds were applied to promastigotes of L. mexicana at a fixed concentration of 10 μM, and parasite proliferation was monitored, following a 72 h incubation, by quantifying total DNA content after lysis using the nucleic acid binding dye SYBR Green I [45].
# To confirm the activity of the primary hits and improve confidence that they would be reasonable starting points for drug development, a variety of secondary screens and analyses were employed (Fig 1A). […]. In parallel, mammalian cell growth inhibition was determined using in vitro proliferation assays with normal human fibroblasts (BJ cells). […]. To further triage the hits, we carried out a chemical structure analysis for the 2,703 primary hit compounds utilizing topology mapping and clustering methodology. We identified a wide range of chemotypes, including several scaffolds with potential structure-activity relationships (SARs), based on their dose response activity (Fig 2). Validated hits were then culled by eliminating scaffolds with less favorable drug development properties such as charged planar structures, reactive electrophilic warheads, known pan-assay interference motifs (PAINS), and compounds displaying gross rule of five noncompliance. Finally, we prioritized scaffolds with the possibility of facile chemical modification to generate a substantial number of structural analogs for future SAR and structure-property relationship (SPR) studies.
# [2] = system: L. mexicana intracellular amastigotes; experiment: Growth inhibition of intracellular amastigotes in J774A.1 macrophages (Renilla luciferase luminescence); format: cell-based; settings: Leishmania mexicana
# Procedure: (§1) L. mexicana (MNYZ/BZ/62/M379) or L. donovani (LdBob strain) parasites expressing the Renilla luciferase gene from a rRNA gene locus were used to infect J774A.1 macrophages. Growth of intracellular amastigotes was measured using a luminescence assay, as detailed previously. The growth inhibitor activities of compounds were tested against bloodstream form Lister 427 T. brucei in 96-well plates containing 1 X 10^5 parasites per well in 0.2 ml HMI-11 medium (Gibco/Thermo Fisher). Compounds (2 μl volumes in DMSO) were added to the parasites using serial 3-fold dilutions to cover a range of concentrations from about 10 μM to 1 nM. After 48 h incubation at 37°C under a humidified 5% CO2 atmosphere, 10 μl of 10% Triton X-100 and 100 X stock SYBR Green I (Sigma-Aldrich) in PBS was added and florescence measured (excitation 497 nm; emission 520 nm) after 1 h incubation in the dark using a Spectra Max Gemini XPS fluorimeter (Molecular Devices). Data were log transformed and EC50 values were determined using GraphPad Prism 6 (GraphPad Software). In the absence of growth inhibiting compounds, the parasites grew from an initial density of 5 X 10^5 cells/mL to ~3 X 10^6 cells/mL.
# […]. These were chosen as candidates for further study. From these 230 compounds, we were able to repurchase 113 from commercial vendors. These compounds were characterized for purity by ultra-performance liquid chromatography using ultraviolet spectroscopy and evaporative light scattering detection and identity by mass spectrometry. All validated compounds were profiled for activity against intracellular amastigotes, the disease-causing stage of the life cycle. Intracellular amastigote activity was determined using a strain of L. mexicana in which the Renilla luciferase gene was integrated into the rRNA locus, allowing robust expression for measuring amastigote growth within cultured macrophages. All 113 compounds were applied at 1 μM concentration for 96 h to J774A.1 macrophages infected with L. mexicana luciferase-expressing parasites. […].
# Next, we generated dose-response curves for these 55 compounds against intracellular amastigotes and independently against J774A.1 macrophages to establish the relative potency of each compound against the pathogen and its host cell. […]. The nine remaining compounds, each representing a unique chemical scaffold (compounds 1–9, Fig 3), were designated top hits (Fig 1).
# [3] = system: L. donovani intracellular amastigotes; experiment: as above; format: cell-based; settings: Leishmania donovani
# Procedure: as §1
# [4] = system: bloodstream form Lister 427 T. brucei; experiment: Growth inhibition of T. brucei bloodstream forms (SYBR Green I); format: cell-based; settings: Trypanosoma brucei, read-out: T. brucei EC50
# Procedure: as §1
# J774A.1 macrophages = experiment: Cytotoxicity to J774A.1 macrophages (dose-response); format: cell-based; settings: for EC50: Mus musculus
# Procedure: Cytotoxicity of compounds to J774.A1 macrophages was determined by dose-response curves as described previously. In the absence of growth inhibitors or DMSO, the macrophages increased in number ~6-fold over 96 h in Minimum Essential Medium, employed for both macrophage infections and the toxicity assays.
# [5] = Mouse plasma protein binding assay (Rapid Equilibrium Dialysis); format: in vitro ADME; settings: mouse, mouse plasma, pH 7.4; Conc. 4 μM
# Procedure: A Rapid Equilibrium Dialysis (RED) Plate (Thermo Scientific, catalog #, PI-90007) was used to determine the percentage of compound binding to mouse plasma proteins (Thermo Scientific, catalog #, 50642085). The positive control for this experiment was propranolol HCl (295.807 g/mol) and the internal standard was warfarin in methanol (2 μM). 10 mM stocks of compound in DMSO were diluted with DMSO and acetonitrile to three different intermediate concentrations: high (2 mM), medium (0.4 mM) and low (0.08 mM) concentration in DMSO:acetonitrile (1:4, v:v). 10 mM stock of propranolol in DMSO were diluted to 0.4 mM concentration in DMSO:acetonitrile (1:4 v:v).
# In 10 Eppendorf tubes, the control (10 μL) or each of three compound dilutions (10 μL) were each added to separate aliquots of 990 μL mouse plasma. Potassium phosphate buffer (500 μL, 0.1 M, pH 7.4, 37 °C) was placed in every white well of the RED plate and each plasma/compound mixture was added to each of 3 RED wells (300 μL). The RED plate holds triplicate samples of one control (final concentration […]) and one compound (final concentrations: 20 μM, 4 μM, […]). The RED Plate was sealed and incubated at 37 °C shaking at 250 rpm for 4 hours. After incubation, aliquots (50 μL) from each well in the RED plate were transferred to an assay plate (pION Inc., MA, #110323). In order to create a uniform matrix in every well of the assay plate, plasma (50 μL) was added to each of the wells that already contained buffer and potassium phosphate buffer (50 μL) was added to each of the wells that already contained plasma/compound. Pre-cooled internal standard (300 μL) was added to the assay plate to quench the reaction. The quenched plate was then centrifuged (5810R, Eppendorf, Westbury, NY) at 3000 rpm for 20 minutes.
# The percentage of free compound [1] and bound compound [2] was calculated usng the AUC ratio of compound to warfarin from the SIR spectra. For reporting data, % Free = Concentration buffer/Concentration plasma *100 %, and % Bound = 100% - % Free.
# [6] = Leishmania mexicana, bracketed references point to earlier reports of antileishmanial activity, read-out: EC50 of known inhibitors identified by the HTS
# [7] = J774.A1, intracellular amastigotes in J774A.1 macrophages, mean ± standard deviation, n = 2, read-out: L. mexicana EC50
# [8] = J774.A1, intracellular amastigotes in J774A.1 macrophages, mean ± standard deviation, n = 2, read-out: L. donovani EC50
# [9] = bloodstream form, mean ± standard deviation, n = 2
# [10] = J774.A1, host macrophage, tested up to 10 μM, mean ± standard deviation, n = 2, read-out: J774A.1 EC50
# [11] = bracketed references point to earlier reports of antileishmanial activity, read-out: EC50 of known inhibitors identified by the HTS
molecule,measurement,setting,value
CN(C)C(=S)SSC(=S)N(C)C [thiram],EC50,[1]; [6],1770 nM
Fc1ccccc1Nc1nc(NCc2ccccc2)c2ccccc2n1 [Compound 2],EC50,[2]; [7],44 ± 23 nM
same,EC50,[3]; [8],130 ± 20 nM
same,EC50,[4]; [9],2000 nM
same,EC50,J774A.1 macrophages; [10],> 10000 nM
same,Reduction in viability / inhibition of host macrophage J774A.1 in dose-response studies,J774A.1 macrophages; up to 10 μM,no reduction in viability
"Cc1c2oc3c(C)ccc(C(=O)N[C@@H]4C(=O)N[C@H](C(C)C)C(=O)N5CCC[C@H]5C(=O)N(C)CC(=O)N(C)[C@@H](C(C)C)C(=O)O[C@@H]4C)c3nc-2c(C(=O)N[C@@H]2C(=O)N[C@H](C(C)C)C(=O)N3CCC[C@H]3C(=O)N(C)CC(=O)N(C)[C@@H](C(C)C)C(=O)O[C@@H]2C)c(N)c1=O [actinomycin D] (I: T[dV]P[Sar][NMeV] / II: T[dV]P[Sar][NMeV]; ester I:1-I:C, II:1-II:C; linker I:N-II:N via Actinocin(9to1))",EC50,[1]; [6],360 nM
CCCCCCCCn1c2c(c(=N)c3ccccc31)CCC2 [Compound 7],EC50,[2]; [7],7 ± 6 nM
same,EC50,[3]; [8],11 ± 8 nM
same,EC50,[4]; [9],460 ± 400 nM
same,EC50,J774A.1 macrophages; [10],700 ± 300 nM
"CC[C@H]1CN2CCc3cc(OC)c(OC)cc3[C@@H]2C[C@@H]1C[C@H]1NCCc2cc(O)c(OC)cc21 [Compound 1, cephaeline]",EC50,"[2]; J774.A1, read-out: L. mexicana EC50",0.6 ± 0.2 nM
same,EC50,"[3]; J774.A1, read-out: L. donovani EC50",2 ± 0.5 nM
same,EC50,[4],800 ± 200 nM
same,EC50,"J774A.1 macrophages; J774.A1, read-out: J774A.1 EC50",920 ± 900 nM
"CC(C)NCC(O)COc1cccc2ccccc12 (centres unmarked) [Propranolol HCl, reference compound]","fraction unbound at 4 h, 4 μM",[5],0.284
N=C(N)c1ccc(OCCCCCOc2ccc(C(=N)N)cc2)cc1 [pentamidine],Inhibition of proliferation (HTS positive control),"[1]; 72 h, primary screen conditions",100%
same,EC50,"[1]; Leishmania mexicana, 72 h, median over HTS plates, interquartile range 1.7–3.1, read-out: EC50 of the control per screening plate (median)",2300 nM
CCN(CC)c1ccc(C2N(C)c3ccccc3N2C)cc1 [Compound 6],EC50,[2]; [7],5.5 ± 4.9 nM
same,EC50,[3]; [8],6 ± 7 nM
same,EC50,[4]; [9],2000 ± 400 nM
same,EC50,J774A.1 macrophages; [10],3500 ± 700 nM
CCN(CC)C(=S)SSC(=S)N(CC)CC [disulfiram],EC50,[1]; [6],500 nM
COc1ccc(C[C@H]2NC[C@H](O)[C@H]2OC(C)=O)cc1 [anisomycin],EC50,[1]; [11],580 nM
CN(C)c1ccc(C(=C2C=CC(=[N+](C)C)C=C2)c2ccc(N(C)C)cc2)cc1 [crystal violet],EC50,[1]; [6],290 nM
avicin,EC50,[1]; [11],1500 nM
